# Patent US11313861B2, “Method of evaluating hepatic glucose uptake capacity” (OTSUKA PHARMACEUTICAL CO., LTD., priority 2016, dated 2022)
# Experiments:
# [1] = Blood ^13C6-glucose level and expired air Δ^13C after oral ^13C6-glucose, 7-week-old ZDF fatty vs ZDF lean rats; type: in vivo, rat
# Description: (§1) To fasted ZDF fatty rats (7 weeks old; n=4) and ZDF lean rats (7 weeks old; n=4) 10 mg/kg of ^13C6-glucose was orally administered. Blood samples and expired air samples were collected over time before and after the administration. The Δ^13C values of the obtained expired air samples were measured by GC/MS. The ^13C6-glucose levels in the blood samples were measured by LC/MS/MS. The fasting blood glucose levels were measured before the glucose administration.
# [2] = Blood ^13C6-glucose level and expired air Δ^13C after oral ^13C6-glucose, 6-week-old ZDF fatty vs ZDF lean rats; type: in vivo, rat
# Description: as §1, with “fatty rats (6 weeks old;” for “fatty rats (7 weeks old;”, “lean rats (6 weeks old;” for “lean rats (7 weeks old;”, “of ^13C6-glucose (13C6-Glucose [D-GLUCOSE⋅(U-13C6, 99%)], Cambridge Isotope Laboratories, Inc. (Andover, Mass., USA)) was orally” for “of ^13C6-glucose was orally”
# [3] = rat, in vivo, po, 10 mg/kg
# Description: To unfasted rats (ZDF lean, ZDF fatty, SD, each n=12) 10 mg/kg of ^13C6-glucose was orally administered. […] The blood ^13C6-glucose level was measured by LC/MS/MS.
# [4] = rat, in vivo, 10 mg/kg
# Description: To unfasted ZDF fatty rats (18 weeks old; n=6), ZDF lean rats (18 weeks old; n=6) and SD rats (14 weeks old; n=3) 10 mg/kg of ^13C6-glucose was orally administered. Expired air samples were collected over time before and after the administration and the Δ^13C values of the samples were measured by GC/MS. Three days after the oral administration, 10 mg/kg of ^13C6-glucose was intravenously administered to the same unfasted rats. Expired air samples were collected over time before and after the administration and the Δ^13C values of the samples were measured by GC/MS.
# The AUCs of the Δ^13C values were calculated for the oral administration and the intravenous administration, and the difference of the AUCs was calculated. The difference is shown in FIG. 5 as the amount of hepatic glucose uptake (hepatic extraction). […] The mutation is homozygous in the ZDF fatty rats.
# [5] = Blood ^13C6-glucose level and expired air Δ^13C after oral ^13C6-glucose, iLIRKO vs IRflox mice; type: in vivo, mouse
# From the text: iLIRKO mouse (inducible liver-specific insulin receptor KO mice) can be used as a model for stage B of pre-onset diabetes, the stage of decreased hepatic extraction ratio, because knock out of insulin receptors can be induced only in the liver (Michael M D, et al., Loss of insulin signaling in hepatocytes leads to severe insulin resistance and progressive hepatic dysfunction. Mol Cell 2000; 6 (1): 87-97). To iLIRKO mice (2 to 3 months old, n=5) and IRflox mice (2 to 3 months old, n=5, control) 10 mg/kg of ^13C6-glucose was orally administered. Blood samples and expired air samples were collected over time before and after the administration. The Δ^13C values of the obtained expired air samples were measured by GC/MS. The ^13C6-glucose levels in the blood samples were measured by LC/MS/MS.
compound,measurement,setting,value
"OC[C@H]1OC(O)[C@H](O)[C@@H](O)[C@@H]1O (stereo partly drawn) [^13C6-glucose, D-GLUCOSE⋅(U-13C6, 99%)]",blood ^13C6 glucose levels,"[1]; fasted 7-week-old ZDF fatty rats vs ZDF lean rats, 10 mg/kg oral, LC/MS/MS",remained higher than those of the ZDF Lean rats
same,Δ^13C values of the expired air samples,"[1]; rat, in vivo, po, 10 mg/kg",kept higher than those of the ZDF lean rats
same,blood ^13C6 glucose levels,"[2]; fasted 6-week-old ZDF fatty rats vs ZDF lean rats, 10 mg/kg oral, LC/MS/MS",remained lower than those of the ZDF Lean rats
same,Δ^13C values of the expired air samples,"[2]; rat, in vivo, po, 10 mg/kg",kept higher than those of the ZDF lean rats
same,hepatic extraction ratio of ^13C6-glucose,[3],"high in order of the SD rats, the ZDF lean rats, and the ZDF fatty rats"
same,"amount of hepatic glucose uptake (hepatic extraction), difference of the AUCs of Δ^13C between oral and intravenous administration",[4],"high in order of the SD rats, the ZDF lean rats, and the ZDF fatty rats"
same,blood ^13C6 glucose levels,"[5]; iLIRKO mice vs IRflox mice, 10 mg/kg oral, LC/MS/MS",kept higher than those of IRflox mice
same,Δ^13C values of the expired air samples,"[5]; mouse, in vivo, po, 10 mg/kg",kept higher than those of IRflox mice
